# Assay results as given in patent US11559530B2, “Oral testosterone undecanoate therapy” (Lipocine Inc., priority 2016, dated 2023).
# Experiment: Clinical study of oral TU testosterone therapy in hypogonadal males: serum testosterone Cavg and Cmax responder analysis
# Assay type: in vivo, human
# Conditions: for Cavg >300 ng/dL ≥75% patients / Cavg >300 ng/dL ≥80% patients / Cmax > 1500 ng/dL <15% patients / Cmax > 1500 ng/dL <20% patients / Cmax > 1800 ng/dL <5% patients / Cmax > 1800 ng/dL <10% patients / Cmax > 2500 ng/dL <2% patients / Cmax > 2500 ng/dL none of patients: with food
# Procedure: The dosage form from Example B of Composition 4 with dosing regimen (Regimen #9-16) of dosing category BID-equal dose with daily dose range 150-600 mg were used for a Clinic Study of Testosterone Therapy for hypogonadal males.
# The clinical study was a randomized double-blind, placebo-controlled dose escalating study of the safety, efficacy, tolerability, and pharmacokinetics of testosterone therapy in hypogonadal males. This clinic study was a single and multiple, ascending-dose study that was designed to determine the optimal starting, titration (if appropriate), or single fixed dose for safety and efficacy targeted by the US FDA. The study also verified the time for testosterone levels to reach steady state and identified a suitable fixed dose dosing regimen that satisfies an unmet need for safety and efficacy for oral TT.
# This study was carried out with conditions of a single-center, randomized, double-blind, placebo-controlled, ascending multiple-dose, and serial-group in adult hypogonadal male subjects. The objectives of this study were: • a) To assess the safety, efficacy, and tolerability of escalating single and multiple oral doses of TU dosage forms in hypogonadal males • b) To determine the pharmacokinetics (PK) of testosterone (T), DHT, TU, DHTU, and estradiol (E2) after single and multiple oral doses of TU dosage forms in hypogonadal males • C) To identify a fixed dose dosing regimen satisfying US FDA targets, without needing to titrate, for restoring serum T levels in hypogonadal males to the normal T range.
# The dosing regimen for this clinical study ranged from 150 mg daily dose (75 mg BID dose) to 600 mg daily dose (300 mg BID dose). Observed pharmacokinetic parameters (T, DHT, TU, DHTU, and E2) after single and multiple oral doses of TU dosage forms in the patients were recorded in connection with each daily dose listed in the report.
# The overall analyzed results of this clinical study were plotted according to % of patients for safety (Cmax<1,500 ng/dL) and efficacy (Cavg>300 ng/dL) with a variety of dosing regimens. Note that only doses that were multiples of 75 mg were tested in the clinical study, the results predicted for the other doses are estimated from these values.
# [1] = Regimen #1, TID-equal dose, TU 75/75/75 mg
# [2] = Regimen #2, TID-equal dose, TU 112/112/112 mg
# [3] = Regimen #3, TID-equal dose, TU 125/125/125 mg
# [4] = Regimen #4, TID-equal dose, TU 150/150/150 mg
# [5] = Regimen #5, TID-equal dose, TU 188/188/188 mg
# [6] = Regimen #6, TID-equal dose, TU 225/225/225 mg
# [7] = Regimen #7, TID-equal dose, TU 237/237/237 mg
# [8] = Regimen #8, TID-equal dose, TU 250/250/250 mg
# [9] = Regimen #9, BID-equal dose (AM/PM), TU 75/75 mg
# [10] = Regimen #10, BID-equal dose (AM/PM), TU 150/150 mg
# [11] = Regimen #11, BID-equal dose (AM/PM), TU 215/215 mg
# [12] = Regimen #12, BID-equal dose (AM/PM), TU 225/225 mg
# [13] = Regimen #13, BID-equal dose (AM/PM), TU 237/237 mg
# [14] = Regimen #14, BID-equal dose (AM/PM), TU 250/250 mg
# [15] = Regimen #15, BID-equal dose (AM/PM), TU 265/265 mg
# [16] = Regimen #16, BID-equal dose (AM/PM), TU 300/300 mg
# [17] = Regimen #17, BID-different dose (AM/PM), TU 75/225 mg
# [18] = Regimen #18, BID-different dose (AM/PM), TU 75/300 mg
# [19] = Regimen #19, BID-different dose (AM/PM), TU 150/225 mg
# [20] = Regimen #20, BID-different dose (AM/PM), TU 225/150 mg
# [21] = Regimen #21, BID-different dose (AM/PM), TU 225/300 mg
# [22] = Regimen #22, BID-different dose (AM/PM), TU 300/75 mg
# [23] = Regimen #23, BID-different dose (AM/PM), TU 300/150 mg
# [24] = Regimen #24, BID-different dose (AM/PM), TU 300/225 mg
smiles,measurement,setting,value
"CCCCCCCCCCC(=O)O[C@H]1CC[C@H]2[C@@H]3CCC4=CC(=O)CC[C@]4(C)[C@H]3CC[C@]12C [TU, testosterone undecanoate]",Cavg >300 ng/dL ≥75% patients,[1],No
same,Cavg >300 ng/dL ≥80% patients,[1],No
same,Cavg >300 ng/dL ≥75% patients,[2],No
same,Cavg >300 ng/dL ≥80% patients,[2],No
same,Cavg >300 ng/dL ≥75% patients,[3],No
same,Cavg >300 ng/dL ≥80% patients,[3],No
same,Cavg >300 ng/dL ≥75% patients,[4],Yes
same,Cavg >300 ng/dL ≥80% patients,[4],Yes
same,Cavg >300 ng/dL ≥75% patients,[5],Yes
same,Cavg >300 ng/dL ≥80% patients,[5],Yes
same,Cavg >300 ng/dL ≥75% patients,[6],Yes
same,Cavg >300 ng/dL ≥80% patients,[6],Yes
same,Cmax > 1500 ng/dL <15% patients,[6],No
same,Cmax > 1500 ng/dL <20% patients,[6],Yes
same,Cmax > 1800 ng/dL <5% patients,[6],No
same,Cmax > 1800 ng/dL <10% patients,[6],Yes
same,Cmax > 2500 ng/dL <2% patients,[6],Yes
same,Cmax > 2500 ng/dL none of patients,[6],No
same,Cavg >300 ng/dL ≥75% patients,[7],Yes
same,Cavg >300 ng/dL ≥80% patients,[7],Yes
same,Cmax > 1500 ng/dL <15% patients,[7],No
same,Cmax > 1500 ng/dL <20% patients,[7],Yes
same,Cmax > 1800 ng/dL <5% patients,[7],No
same,Cmax > 1800 ng/dL <10% patients,[7],Yes
same,Cmax > 2500 ng/dL <2% patients,[7],No
same,Cmax > 2500 ng/dL none of patients,[7],No
same,Cavg >300 ng/dL ≥75% patients,[8],Yes
same,Cavg >300 ng/dL ≥80% patients,[8],Yes
same,Cmax > 1500 ng/dL <15% patients,[8],No
same,Cmax > 1500 ng/dL <20% patients,[8],No
same,Cmax > 1800 ng/dL <5% patients,[8],No
same,Cmax > 1800 ng/dL <10% patients,[8],No
same,Cmax > 2500 ng/dL <2% patients,[8],No
same,Cmax > 2500 ng/dL none of patients,[8],No
same,Cavg >300 ng/dL ≥75% patients,[9],No
same,Cavg >300 ng/dL ≥80% patients,[9],No
same,Cmax > 1500 ng/dL <15% patients,[9],Yes
same,Cmax > 1500 ng/dL <20% patients,[9],Yes
same,Cmax > 1800 ng/dL <5% patients,[9],Yes
same,Cmax > 1800 ng/dL <10% patients,[9],Yes
same,Cmax > 2500 ng/dL <2% patients,[9],Yes
same,Cmax > 2500 ng/dL none of patients,[9],Yes
same,Cavg >300 ng/dL ≥75% patients,[10],No
same,Cavg >300 ng/dL ≥80% patients,[10],No
same,Cmax > 1500 ng/dL <15% patients,[10],Yes
same,Cmax > 1500 ng/dL <20% patients,[10],Yes
same,Cmax > 1800 ng/dL <5% patients,[10],Yes
same,Cmax > 1800 ng/dL <10% patients,[10],Yes
same,Cmax > 2500 ng/dL <2% patients,[10],Yes
same,Cmax > 2500 ng/dL none of patients,[10],Yes
same,Cavg >300 ng/dL ≥75% patients,[11],Yes
same,Cavg >300 ng/dL ≥80% patients,[11],No
same,Cmax > 1500 ng/dL <15% patients,[11],Yes
same,Cmax > 1500 ng/dL <20% patients,[11],Yes
same,Cmax > 1800 ng/dL <5% patients,[11],Yes
same,Cmax > 1800 ng/dL <10% patients,[11],Yes
same,Cmax > 2500 ng/dL <2% patients,[11],Yes
same,Cmax > 2500 ng/dL none of patients,[11],Yes
same,Cavg >300 ng/dL ≥75% patients,[12],Yes
same,Cavg >300 ng/dL ≥80% patients,[12],Yes
same,Cmax > 1500 ng/dL <15% patients,[12],Yes
same,Cmax > 1500 ng/dL <20% patients,[12],Yes
same,Cmax > 1800 ng/dL <5% patients,[12],Yes
same,Cmax > 1800 ng/dL <10% patients,[12],Yes
same,Cmax > 2500 ng/dL <2% patients,[12],Yes
same,Cmax > 2500 ng/dL none of patients,[12],Yes
same,Cavg >300 ng/dL ≥75% patients,[13],Yes
same,Cavg >300 ng/dL ≥80% patients,[13],Yes
same,Cmax > 1500 ng/dL <15% patients,[13],Yes
same,Cmax > 1500 ng/dL <20% patients,[13],Yes
same,Cmax > 1800 ng/dL <5% patients,[13],Yes
same,Cmax > 1800 ng/dL <10% patients,[13],Yes
same,Cmax > 2500 ng/dL <2% patients,[13],Yes
same,Cmax > 2500 ng/dL none of patients,[13],Yes
same,Cavg >300 ng/dL ≥75% patients,[14],Yes
same,Cavg >300 ng/dL ≥80% patients,[14],Yes
same,Cmax > 1500 ng/dL <15% patients,[14],No
same,Cmax > 1500 ng/dL <20% patients,[14],Yes
same,Cmax > 1800 ng/dL <5% patients,[14],Yes
same,Cmax > 1800 ng/dL <10% patients,[14],Yes
same,Cmax > 2500 ng/dL <2% patients,[14],Yes
same,Cmax > 2500 ng/dL none of patients,[14],Yes
same,Cavg >300 ng/dL ≥75% patients,[15],Yes
same,Cavg >300 ng/dL ≥80% patients,[15],Yes
same,Cmax > 1500 ng/dL <15% patients,[15],No
same,Cmax > 1500 ng/dL <20% patients,[15],Yes
same,Cmax > 1800 ng/dL <5% patients,[15],No
same,Cmax > 1800 ng/dL <10% patients,[15],Yes
same,Cmax > 2500 ng/dL <2% patients,[15],Yes
same,Cmax > 2500 ng/dL none of patients,[15],No
same,Cavg >300 ng/dL ≥75% patients,[16],Yes
same,Cavg >300 ng/dL ≥80% patients,[16],Yes
same,Cmax > 1500 ng/dL <15% patients,[16],No
same,Cmax > 1500 ng/dL <20% patients,[16],No
same,Cmax > 1800 ng/dL <5% patients,[16],No
same,Cmax > 1800 ng/dL <10% patients,[16],Yes
same,Cmax > 2500 ng/dL <2% patients,[16],Yes
same,Cmax > 2500 ng/dL none of patients,[16],No
same,Cavg >300 ng/dL ≥75% patients,[17],No
same,Cavg >300 ng/dL ≥80% patients,[17],No
same,Cmax > 1500 ng/dL <15% patients,[17],Yes
same,Cmax > 1500 ng/dL <20% patients,[17],Yes
same,Cmax > 1800 ng/dL <5% patients,[17],Yes
same,Cmax > 1800 ng/dL <10% patients,[17],Yes
same,Cmax > 2500 ng/dL <2% patients,[17],Yes
same,Cmax > 2500 ng/dL none of patients,[17],Yes
same,Cavg >300 ng/dL ≥75% patients,[18],No
same,Cavg >300 ng/dL ≥80% patients,[18],No
same,Cmax > 1500 ng/dL <15% patients,[18],Yes
same,Cmax > 1500 ng/dL <20% patients,[18],Yes
same,Cmax > 1800 ng/dL <5% patients,[18],No
same,Cmax > 1800 ng/dL <10% patients,[18],Yes
same,Cmax > 2500 ng/dL <2% patients,[18],Yes
same,Cmax > 2500 ng/dL none of patients,[18],No
same,Cavg >300 ng/dL ≥75% patients,[19],No
same,Cavg >300 ng/dL ≥80% patients,[19],No
same,Cmax > 1500 ng/dL <15% patients,[19],Yes
same,Cmax > 1500 ng/dL <20% patients,[19],Yes
same,Cmax > 1800 ng/dL <5% patients,[19],Yes
same,Cmax > 1800 ng/dL <10% patients,[19],Yes
same,Cmax > 2500 ng/dL <2% patients,[19],Yes
same,Cmax > 2500 ng/dL none of patients,[19],Yes
same,Cavg >300 ng/dL ≥75% patients,[20],Yes
same,Cavg >300 ng/dL ≥80% patients,[20],No
same,Cmax > 1500 ng/dL <15% patients,[20],Yes
same,Cmax > 1500 ng/dL <20% patients,[20],Yes
same,Cmax > 1800 ng/dL <5% patients,[20],Yes
same,Cmax > 1800 ng/dL <10% patients,[20],Yes
same,Cmax > 2500 ng/dL <2% patients,[20],Yes
same,Cmax > 2500 ng/dL none of patients,[20],Yes
same,Cavg >300 ng/dL ≥75% patients,[21],Yes
same,Cavg >300 ng/dL ≥80% patients,[21],Yes
same,Cmax > 1500 ng/dL <15% patients,[21],No
same,Cmax > 1500 ng/dL <20% patients,[21],No
same,Cmax > 1800 ng/dL <5% patients,[21],No
same,Cmax > 1800 ng/dL <10% patients,[21],Yes
same,Cmax > 2500 ng/dL <2% patients,[21],Yes
same,Cmax > 2500 ng/dL none of patients,[21],No
same,Cavg >300 ng/dL ≥75% patients,[22],No
same,Cavg >300 ng/dL ≥80% patients,[22],No
same,Cmax > 1500 ng/dL <15% patients,[22],No
same,Cmax > 1500 ng/dL <20% patients,[22],Yes
same,Cmax > 1800 ng/dL <5% patients,[22],No
same,Cmax > 1800 ng/dL <10% patients,[22],Yes
same,Cavg >300 ng/dL ≥75% patients,[23],Yes
same,Cavg >300 ng/dL ≥80% patients,[23],Yes
same,Cavg >300 ng/dL ≥75% patients,[24],Yes
same,Cavg >300 ng/dL ≥80% patients,[24],Yes
same,US FDA T level targets for safety and efficacy,"fixed dose, 430 mg TU daily (215 mg BID-equal) to 480 mg TU daily (240 mg BID-equal)",can satisfy US FDA T level targets for safety and efficacy without titration
